For 30 compounds, IC50 and EC50 results are on record in patent publication US7915291B2, “Hepatitis C virus inhibitors” (Bristol-Myers Squibb Company, priority 2002, dated 2011).

The target of test [1] is HCV NS3/4A protease complex, BMS strain (UniProt P27958, C1454S/C1711G, species not given/STRAIN_BMS). The test is described as follows: Recombinant HCV NS3/4A protease complex FRET peptide assay (BMS strain). Type of test: biochemical, HCV genotype 1a. In short, it runs like this: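 Percent inhibition taken from the linear-range fluorescence slope relative to uninhibited control, read kinetically for about 15 min at 25° C. Enzyme (2-3 nM, BMS NS3/4A complex, lysine-tailed, Ni-NTA purified) met compound for 1 min before 2 μM FRET depsipeptide substrate started cleavage.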

In test [2] the test system is HCV replicon in Huh7 cells. The test can be described thus: HCV replicon cell-based assay. On the set-up: species or system HCV strain 1B. The settings on record: Hepatitis C virus, Huh-7; HCV replicon, Huh7 cells; read-out: EC50 range.
[3] abbreviates: NS3/4A BMS strain; read-out: IC50 range.

Structures are written as SMILES. pEC50, pIC50: −log10 of the molar value. Where two headings read alike, the source gives them in different places.

The term pIC50 denotes −log10 of the IC50, conventionally taken in molar units. One may read the pEC50 as the EC50 on a negative log10 scale, so that one unit is a factor of ten. `C=CC1C[C@]1(NC(=O)[C@@H]1C[C@@H](Oc2nnc(OC)c3ccccc23)CN1C(=O)[C@@H](NC(=O)OC(C)(C)C)C(C)(C)C)C(=O)NS(=O)(=O)C1CC1` (stereo partly drawn) [Compound 201, BOCNH-P3(L-t-BuGly)-P2-[(4R)-(4-methoxyphthalazine-1-oxo)-S -proline]-P1(1R,2S VinylAcca)-CONHSO2Cyclopropane]: in test [1] (setting [3]), the pIC50 was greater than 7.00. Besides, the pEC50 in test [2] was greater than 7.00.

With `C=C[C@@H]1C[C@]1(NC(=O)[C@@H]1C[C@@H](Oc2nccc3ccc(OC)cc23)CN1C(=O)[C@@H](NC(=O)OC(C)(C)C)C(C)(C)C)C(=O)NS(=O)(=O)C1CC1` [Compound 260], in test [1] (setting [3]), the pIC50 is greater than 7.00. For the same compound, in test [2], the pEC50 is 6.00 to 7.00.

In the case of `C=C[C@@H]1C[C@]1(NC(=O)[C@@H]1C[C@@H](Oc2nccc3cc(-n4cccn4)ccc23)CN1C(=O)[C@@H](NC(=O)OC(C)(C)C)C(C)(C)C)C(=O)NS(=O)(=O)C1CC1` [Compound 21], in test [1] (setting [3]), the pIC50 was greater than 7.00. For the same compound, in test [2], the pEC50 was greater than 7.00.

Consider `C=C[C@@H]1C[C@]1(NC(=O)[C@@H]1C[C@@H](Oc2ccnc3cc(OC)ccc23)CN1C(=O)[C@@H](NC(=O)OC(C)(C)C)C(C)(C)C)C(=O)NS(=O)(=O)C1CC1` [Compound 375], for which the pIC50 in test [1] (setting [3]) is greater than 7.00. Further, the negative logarithm of the EC50 (pEC50) in test [2] was greater than 7.00.

In the case of `C=C[C@@H]1C[C@]1(NC(=O)[C@@H]1C[C@@H](Oc2nccc3c(C(F)(F)F)cccc23)CN1C(=O)[C@@H](NC(=O)OC(C)(C)C)C(C)(C)C)C(=O)NS(=O)(=O)C1CC1` [Compound 270], the pIC50 in test [1] (setting [3]) is greater than 7.00. Further, in test [2], the pEC50 is 6.00 to 7.00.

On to `C=C[C@@H]1C[C@]1(NC(=O)[C@@H]1C[C@@H](Oc2cc(-c3ccccc3)nc3nc(C)ccc23)CN1C(=O)[C@@H](NC(=O)OC(C)(C)C)C(C)(C)C)C(=O)NS(=O)(=O)C1CC1` [Compound 2], for which the pIC50 in test [1] (setting [3]) was greater than 7.00. The pEC50 in test [2] was 6.00 to 7.00.

Consider `C=CC1C[C@]1(NC(=O)[C@@H]1C[C@@H](Oc2nccc3cc(OC(C)(C)C)ccc23)CN1C(=O)[C@@H](NC(=O)OC(C)(C)C)C(C)(C)C)C(=O)NS(=O)(=O)C1CC1` (stereo partly drawn) [Compound 193, BOCNH-P3(L-tert-BuGly)-P2[(4R)-(6-tert-butoxy isoquinolin-1-oxo)-S-proline]-P1(1R,2S Vinyl Acca)-CONHSO2-Cyclopropane], for which, in test [1] (setting [3]), the pIC50 is greater than 7.00. Further, the negative-log EC50 (pEC50) in test [2] was 6.00 to 7.00.

With `C=C[C@@H]1C[C@]1(NC(=O)[C@@H]1C[C@@H](Oc2nccc3cc(OC)c(Cl)cc23)CN1C(=O)[C@@H](NC(=O)OC(C)(C)C)C(C)(C)C)C(=O)NS(=O)(=O)C1CC1` [Compound 273], the pIC50 in test [1] (setting [3]) was greater than 7.00. In test [2], the pEC50 is greater than 7.00.

Take `C=C[C@@H]1C[C@]1(NC(=O)[C@@H]1C[C@@H](Oc2nccc3cc(OC)ccc23)CN1C(=O)[C@H](CC(=O)OC(C)(C)C)NC(=O)OC(C)(C)C)C(=O)NS(=O)(=O)C1CC1` [Compound 139]: the pIC50 in test [1] (setting [3]) is greater than 7.00. For the same compound, in test [2], the pEC50 was 6.00 to 7.00.

Take `C=C[C@@H]1C[C@]1(NC(=O)[C@@H]1C[C@@H](Oc2cncc(-c3csc(C)n3)c2)CN1C(=O)[C@@H](NC(=O)OC(C)(C)C)C(C)(C)C)C(=O)NS(=O)(=O)C1CC1` [Compound 433]: in test [1] (setting [3]), the pIC50 is 6.00 to 7.00. In addition, the pEC50 in test [2] is 5.00 to 6.00.

As for `C=C[C@@H]1C[C@]1(NC(=O)[C@@H]1C[C@@H](Oc2nc(-c3cnccn3)cc3ccccc23)CN1C(=O)[C@@H](NC(=O)OC(C)(C)C)C(C)(C)C)C(=O)NS(=O)(=O)C1CC1` [Compound 31], in test [1] (setting [3]), the pIC50 is greater than 7.00. Also, the pEC50 in test [2] is greater than 7.00.

`C=C[C@@H]1C[C@]1(NC(=O)[C@@H]1C[C@@H](Oc2nccc3c(C)cccc23)CN1C(=O)[C@@H](NC(=O)OC(C)(C)C)C(C)(C)C)C(=O)NS(=O)(=O)C1CC1` [Compound 252]: in test [1] (setting [3]), the pIC50 was greater than 7.00. The pEC50 in test [2] was greater than 7.00.

Regarding `C=CC1CC1(NC(=O)C1CC(Oc2nc(Br)c(O)c3ccccc23)CN1C(=O)C(NC(=O)OC(C)(C)C)C(C)(C)C)C(=O)NS(=O)(=O)C1CC1` (stereo not drawn) [Compound 224], the pIC50 in test [1] (setting [3]) is greater than 7.00. In addition, in test [2], the pEC50 was 6.00 to 7.00.

In the case of `C=C[C@@H]1C[C@]1(NC(=O)[C@@H]1C[C@@H](Oc2cncc(-c3ccoc3)c2)CN1C(=O)[C@@H](NC(=O)OC(C)(C)C)C(C)(C)C)C(=O)NS(=O)(=O)C1CC1` [Compound 424], in test [1] (setting [3]), the pIC50 is greater than 7.00. Further, the pEC50 in test [2] was 6.00 to 7.00.

With `C=C[C@@H]1C[C@]1(NC(=O)[C@@H]1C[C@@H](Oc2cc(-c3csc(NC(C)C)n3)nc3cc(OC)ccc23)CN1C(=O)[C@@H](NC(=O)OC(C)(C)C)C(C)(C)C)C(=O)NS(=O)(=O)C1CC1` [Compound 370], the pIC50 in test [1] (read-out: IC50 range; NS3/4A BMS strain) was 6.00 to 7.00. Moreover, the pEC50 in test [2] is 5.00 to 6.00.

For the compound `C=C[C@@H]1C[C@]1(NC(=O)[C@@H]1C[C@@H](Oc2nccc3ccccc23)CN1C(=O)[C@@H](NC(=O)OC(C)(C)C)C(C)(C)C)C(=O)NS(=O)(=O)C1CC1` [Compound 23], the pIC50 in test [1] (setting [3]) was greater than 7.00. Further, in test [2], the pEC50 was greater than 7.00.

In the case of `C=CC1C[C@]1(NC(=O)[C@@H]1C[C@@H](Oc2nc(-c3nccs3)c(OC)c3ccccc23)CN1C(=O)[C@@H](NC(=O)OC(C)(C)C)C(C)(C)C)C(=O)NS(=O)(=O)C1CC1` (stereo partly drawn) [Compound 232, BOCNH-P3(L-t-BuGly)-P2[(4R)-(4-methoxy-3-thiazol-2-yl -isoquinolin-1-oxo)-S-proline]-P1(1R,2S VinylAcca)-CONHSO2Cyclopropane], the pIC50 in test [1] (setting [3]) was greater than 7.00. Moreover, the pEC50 in test [2] is greater than 7.00.

Consider `C=CC1C[C@]1(NC(=O)[C@@H]1C[C@@H](Oc2nncc3ccccc23)CN1C(=O)[C@@H](NC(=O)OC(C)(C)C)C(C)(C)C)C(=O)NS(=O)(=O)C1CC1` (stereo partly drawn) [Compound 194, BOCNH-P3(L-tert-BuGly)-P2[(4R)-(phthalazine-1-oxo)-S-proline]-P1(1R,2S Vinyl Acca)-CONHSO2-Cyclopropane], for which the pIC50 in test [1] (setting [3]) is greater than 7.00. Moreover, the pEC50 in test [2] is 6.00 to 7.00.

Turning to `C=C[C@@H]1C[C@]1(NC(=O)[C@@H]1C[C@@H](Oc2cc(-c3ccc(F)cc3)nc3c(C)noc23)CN1C(=O)[C@@H](NC(=O)OC(C)(C)C)C(C)(C)C)C(=O)NS(=O)(=O)C1CC1` [Compound 4], the pIC50 in test [1] (setting [3]) is greater than 7.00. In addition, in test [2], the negative logarithm of the EC50 (pEC50) is greater than 7.00.

As to `C=C[C@@H]1CC1(NC(=O)[C@@H]1CC(Oc2nccc3cc(OC)ccc23)CN1C(=O)[C@@H](NC(=O)O[C@@H]1C[C@H](C)CC[C@H]1C(C)C)C(C)(C)C)C(=O)NS(=O)(=O)C1CC1` (stereo partly drawn) [Compound 66], the pIC50 in test [1] (setting [3]) is greater than 7.00. In addition, in test [2], the pEC50 was 6.00 to 7.00.

As for `C=C[C@@H]1C[C@]1(NC(=O)[C@@H]1C[C@@H](Oc2nccc3ccccc23)CN1C(=O)[C@@H](NC(=O)CCOC)C(C)(C)C)C(=O)NS(=O)(=O)C1CC1` [Compound 132], the pIC50 in test [1] (setting [3]) was greater than 7.00. Further, the negative logarithm of the EC50 (pEC50) in test [2] is 5.00 to 6.00.

Turning to `C=C[C@@H]1C[C@]1(NC(=O)[C@@H]1C[C@@H](Oc2nccc3cc(OC)ccc23)CN1C(=O)[C@@H](NC(=O)NC(C)(C)CC)[C@H](C)OC)C(=O)NS(=O)(=O)C1CC1` [Compound 102], the pIC50 in test [1] (setting [3]) was greater than 7.00. Also, the pEC50 in test [2] was greater than 7.00.

As to `C=C[C@@H]1C[C@]1(NC(=O)[C@@H]1C[C@@H](Oc2cc(-c3cccc(OC)c3)nc3c(C)noc23)CN1C(=O)[C@@H](NC(=O)OC(C)(C)C)C(C)(C)C)C(=O)NS(=O)(=O)C1CC1` [Compound 5], the negative-log IC50 (pIC50) in test [1] (setting [3]) was greater than 7.00. For the same compound, the pEC50 in test [2] was greater than 7.00.

For the compound `C=C[C@@H]1C[C@]1(NC(=O)[C@@H]1CC(Oc2nccc3cc(OC)ccc23)CN1C(=O)[C@@H](NC(=O)OC(C)(C)c1ccc(C(F)(F)F)cc1)C(C)(C)C)C(=O)NS(=O)(=O)C1CC1` (stereo partly drawn) [Compound 73], the pIC50 in test [1] (setting [3]) is greater than 7.00. Further, in test [2], the pEC50 is 6.00 to 7.00.

Turning to `C=C[C@@H]1CC1(NC(=O)[C@@H]1CC(Oc2nccc3cc(OC)ccc23)CN1C(=O)[C@@H](NC(=O)O[C@H]1C[C@@H](C)CC[C@@H]1C(C)C)C(C)(C)C)C(=O)NS(=O)(=O)C1CC1` (stereo partly drawn) [Compound 65], in test [1] (setting [3]), the pIC50 was greater than 7.00. The pEC50 in test [2] is 6.00 to 7.00.

With `C=C[C@@H]1C[C@]1(NC(=O)[C@@H]1C[C@@H](Oc2nc(-c3ccoc3)cc3ccccc23)CN1C(=O)[C@@H](NC(=O)OC(C)(C)C)C(C)(C)C)C(=O)NS(=O)(=O)C1CC1` [Compound 30], the pIC50 in test [1] (setting [3]) is greater than 7.00. The pEC50 in test [2] was greater than 7.00.

As to `C=CC1C[C@]1(NC(=O)[C@@H]1C[C@@H](Oc2cc(C(F)(F)F)nc3ccccc23)CN1C(=O)[C@@H](NC(=O)OC(C)(C)C)C(C)(C)C)C(=O)NS(=O)(=O)C1CC1` (stereo partly drawn) [Compound 180, BOCNH-P3(L-tert-BuGly)-P2[(4R)-(2-trifluoromethyl quinolin-4-oxo)-S-proline]-P1(1R,2S Vinyl Acca)-CONHSO2-Cyclopropane], the pIC50 in test [1] (setting [3]) was greater than 7.00. Also, in test [2], the pEC50 was 6.00 to 7.00.

On to `C=C[C@@H]1C[C@]1(NC(=O)[C@@H]1C[C@@H](Oc2nccc3ccccc23)CN1C(=O)[C@@H](NC(=O)COC)C(C)(C)C)C(=O)NS(=O)(=O)C1CC1` [Compound 131], for which the pIC50 in test [1] (setting [3]) is 6.00 to 7.00. In addition, the pEC50 in test [2] is 5.00 to 6.00.

Regarding `C=CC1C[C@]1(NC(=O)[C@@H]1C[C@@H](COc2cccc(-c3ccoc3)n2)CN1C(=O)[C@@H](NC(=O)OC)C(C)(C)C)C(=O)NS(=O)(=O)C1CC1` (stereo partly drawn) [Compound 355], in test [1] (setting [3]), the pIC50 was 6.00 to 7.00. For the same compound, the pEC50 in test [2] is 4.00 to 5.00.

With `C=CC1C[C@]1(NC(=O)[C@@H]1C[C@@H](Oc2nc3c(c4ccccc24)OCOC3)CN1C(=O)[C@@H](NC(=O)OC(C)(C)C)C(C)(C)C)C(=O)NS(=O)(=O)C1CC1` (stereo partly drawn) [Compound 227, BOCNH-P3(L-t-BuGly)-P2[(4R)-(1,3-oxazino[5,6-c]isoquinoline-6-oxo)-S-proline]-P1(1R,2S VinylAcca)-CONHSO2Cyclopropane], the pIC50 in test [1] (setting [3]) is greater than 7.00. For the same compound, the pEC50 in test [2] is greater than 7.00.
